Substitutions are numbered along the chain they refer to. Each block holds one compound with its values, some of them ahead of it.
Legend:
[1] = Oral bioavailability in rat; assay type: ADME, organism-based; details: in vivo
Rattus norvegicus [2] = assay: Antihypertensive activity in po dosed conscious rat; assay type: functional; details: read-out: ID50 (the source's name)
[3] = target: T1, Type-1 angiotensin II receptor (Oryctolagus cuniculus, UniProt P34976); assay: Antagonist activity at angiotensin AT1 receptor in rabbit aortic strip assessed as inhibition of angiotensin 2-induced contractile response; assay type: functional
T1 sequence (P34976 whole entry): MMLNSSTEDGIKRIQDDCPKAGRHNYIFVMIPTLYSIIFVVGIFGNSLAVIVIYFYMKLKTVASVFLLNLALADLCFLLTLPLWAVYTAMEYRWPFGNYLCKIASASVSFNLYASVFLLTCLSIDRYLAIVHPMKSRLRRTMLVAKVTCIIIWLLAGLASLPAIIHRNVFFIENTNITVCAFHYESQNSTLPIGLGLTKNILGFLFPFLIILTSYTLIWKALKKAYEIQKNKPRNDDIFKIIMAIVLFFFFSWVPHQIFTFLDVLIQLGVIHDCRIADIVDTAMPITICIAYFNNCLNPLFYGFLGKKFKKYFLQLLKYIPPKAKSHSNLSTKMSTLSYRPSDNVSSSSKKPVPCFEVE

[4] = Binding affinity to angiotensin AT1 receptor in rat adrenal cortical membranes; assay type: cell membranes
[5] = target: T1, Type-1 angiotensin II receptor; assay: (§1) Antagonist activity at angiotensin AT1 receptor in rabbit aorta; assay type: functional, tissue-based; details: read-out: pA2 (converted)
[6] = target: T2, Type-1 angiotensin II receptor (Homo sapiens, UniProt P30556); assay: Binding affinity to angiotensin AT1 receptor
T2 sequence (P30556 whole entry): T1 sequence (P34976 whole entry) with M2I, A49V, V254I, V270I, H272R, K311R, S349T, V353A

[7] = target: T2, Type-1 angiotensin II receptor; assay: (§2) Antagonist activity at angiotensin AT1 receptor; assay type: functional; details: read-out: pA2 (converted)
[8] = target: T3, Type-1 angiotensin II receptor (Homo sapiens) (UniProt P30556); assay: Ratio of compound Ki to losartan Ki for angiotensin AT1 receptor
T3 sequence (whole entry): T1 sequence (P34976 whole entry) with M2I, A49V, V254I, V270I, H272R, K311R, S349T, V353A

[9] = target: T3, Type-1 angiotensin II receptor (Homo sapiens); assay: as §2; assay type: functional
[10] = Binding affinity to angiotensin AT1 receptor in rat liver membranes; assay type: cell membranes, Membrane
[11] = target: T4, Type-1 angiotensin II receptor (Oryctolagus cuniculus) (UniProt P34976); assay: as §1; assay type: functional, tissue-based
T4 sequence (whole entry): T1 sequence (P34976 whole entry)

Rattus norvegicus [12] = assay: Inhibition of angiotensin 2-induced response in iv dosed normotensive rat; assay type: functional
[13] = Displacement of radiolabeled angiotensin2 from angiotensin AT1 receptor in rat adrenal cortex membranes; assay type: cell membranes, Membrane
Rattus norvegicus [14] = assay: Antihypertensive activity in po dosed renal hypertensive rat model; assay type: functional; details: read-out: ID50 (the source's name)
Rattus norvegicus [15] = assay: Antihypertensive activity in iv dosed renal hypertensive rat model; assay type: functional
[16] = target: T5, Type-2 angiotensin II receptor (Homo sapiens, UniProt P50052); assay: Binding affinity to angiotensin AT2 receptor
T5 sequence (P50052 whole entry): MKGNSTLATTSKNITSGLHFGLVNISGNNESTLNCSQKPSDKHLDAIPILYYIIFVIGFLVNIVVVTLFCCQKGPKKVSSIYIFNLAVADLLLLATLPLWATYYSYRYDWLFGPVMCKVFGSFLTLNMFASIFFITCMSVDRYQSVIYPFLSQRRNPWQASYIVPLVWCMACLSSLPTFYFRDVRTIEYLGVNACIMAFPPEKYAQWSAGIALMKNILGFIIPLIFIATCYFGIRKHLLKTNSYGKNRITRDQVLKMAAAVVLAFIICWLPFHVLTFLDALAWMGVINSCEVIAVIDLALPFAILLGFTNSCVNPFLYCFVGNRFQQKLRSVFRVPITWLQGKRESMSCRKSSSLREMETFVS

[17] = target: T1, Type-1 angiotensin II receptor; assay: Antagonist activity at angiotensin AT1 receptor in rabbit aorta assessed as reduction of angiotensin 2-induced contractile response; assay type: functional, tissue-based; details: read-out: pA2 (converted)
[18] = target: T1, Type-1 angiotensin II receptor; assay: Binding affinity to angiotensin AT1 receptor in rabbit aortic rings
[19] = Antagonist activity at angiotensin AT1 receptor in rat liver membranes; assay type: functional, cell membranes, Membrane
[20] = Antagonist activity at angiotensin AT1 receptor in rat aorta; assay type: functional, tissue-based
[21] = Selectivity ratio of IC50 for angiotensin AT1 receptor to IC50 for angiotensin AT2 receptor

SMILES: Cc1ccnc2c1nc(C1CC1)n2Cc1ccc(-c2ccccc2C(=O)O)cc1
IC50 [4]: 52 nM | Kb [5]: 2 nM

SMILES: CCc1nc2c(C)cc(C)nc2n1Cc1ccc(-c2c(-c3nn[nH]n3)cnc3ccccc23)cc1
IC50 [10]: 0.4 nM

SMILES: CCc1nc2c(n1Cc1ccc(-c3ccccc3-c3nn[nH]n3)cc1)/C(=C/C(=O)O)CCCC2
IC50 [10]: 5.5 nM | pD2 [11]: 9.91

SMILES: C[C@@H]1CN(Cc2ccc(-c3ccccc3-c3nn[nH]n3)cc2)C[C@H](C)O1
Kb [7]: 126 nM

SMILES: CCCc1cc(O)c(C)c(=O)n1Cc1ccc(-c2ccccc2-c2nn[nH]n2)cc1
ED50 (Rattus norvegicus [12]; Rattus norvegicus, iv, read-out: ID50 (the source's name)): 0.02 mg/kg

SMILES: CCCCc1nc2ccccc2[n+]([O-])c1Oc1ccc(-c2ccccc2-c2nn[nH]n2)cc1
Ki [16]: 4.5 nM

SMILES: CCCCc1ncc(/C=C(\Cc2cccs2)C(=O)O)n1Cc1ccc(C(=O)O)cc1 [EPROSARTAN]
ID60 (Rattus norvegicus [12]): 0.08 mg/kg

SMILES: CCCCCc1nc(SCc2ccc(-c3ccccc3C(=O)O)cc2)nn1Cc1ccc(-c2ccccc2C(=O)O)cc1
Kb [17]: 3.98 nM

SMILES: CCc1cc(Sc2ccc(-c3ccccc3-c3nn[nH]n3)cc2)c2ncccc2n1
IC50 [19]: 20 nM

SMILES: CCCCc1nc2cccnc2n1Cc1ccc(-n2cccc2-c2nnn[nH]2)cc1
Kb [5]: 3.55 nM | IC50 [20]: 0.6 nM

SMILES: CCCCCCC(C(=O)O)n1cnc(NC(=O)c2cccc(O)c2C(=O)O)c1 (centres undefined)
Kb [5]: 100 nM

SMILES: CCc1nc2c(CC)cn(Cc3ccc(-c4ccccc4-c4nn[nH]n4)cc3)n2n1
Kb [5]: 1.51 nM

SMILES: CCc1nc2ccc(NC(=O)N(C)C(C)C)cc2c(=O)n1Cc1ccc(-c2ccccc2S(=O)(=O)NC(=O)OCCC2CC2)cc1F
Ratio IC50 [21]: 2

SMILES: CCc1nc2c(C)cc(C)nc2n1Cc1ccc2c(c1)CCN2C(c1ccccc1)c1nnn[nH]1 (centres undefined)
IC50 [18]: 1 nM

Continued, in another order:

bioavailability [1]: 28% | IC50 [3]: 200 nM
SMILES: CCOc1nc2cccc(C(=O)OC(C)OC(=O)OC3CCCCC3)c2n1Cc1ccc(-c2ccccc2-c2nnn[nH]2)cc1 (centres undefined) [CANDESARTAN CILEXETIL]
ED50 (Rattus norvegicus [2]): 0.06 mg/kg

Ki [4]: 0.9 nM
SMILES: CCCCc1nc(C)n(Cc2sccc2C(=O)OC)c(=O)c1Cc1ccc(-c2ccccc2-c2nnn[nH]2)cc1

IC50 [6]: 6 nM | Kb [5]: 9.77 nM | Kb [7]: 0.0126 nM
SMILES: CCCCc1nc2ccc(C(C)(C)OC)cc2c(=O)n1Cc1ccc(-c2ccccc2-c2nn[nH]n2)cc1 [CL-329167]

Ratio Ki [8]: 10 | IC50 [6]: 110 nM | pD2 [9]: 9.97
SMILES: CCOc1nc2cccc(C(=O)O)c2n1Cc1ccc(-c2ccccc2-c2nnn[nH]2)cc1

IC50 [6]: 1.4 nM
SMILES: CCCCc1nnc(SCc2ccccc2C(=O)O)n1Cc1ccc(-c2ccccc2-c2nn[nH]n2)cc1

IC50 [13]: 0.2 nM
SMILES: CCCCc1nc(SC)c(C(=O)O)n1Cc1ccc(-c2ccccc2-c2nnn[nH]2)cc1
ED50 (Rattus norvegicus [14]): 0.4 mg/kg | ED50 (Rattus norvegicus [15]; read-out: ID50 (the source's name)): 0.05 mg/kg

IC50 [18]: 0.77 nM
SMILES: CCCCC1=N[C@](C)(C2CCCCC2)C(=O)N1Cc1ccc(-c2ccccc2-c2nnn[nH]2)cc1

IC50 [13]: 2.1 nM
SMILES: CCCc1nc(CC)c(C=O)n1Cc1ccc(-c2ccccc2-c2nn[nH]n2)cc1

Kb [5]: 0.0501 nM
SMILES: CCc1cc(OCc2ccc(-c3ccccc3-c3nnn[nH]3)cc2)c2c(n1)CCCC2

Ki [6]: 29 nM | Ki [16]: 480 nM
SMILES: CCCc1nc2ccccc2n1C(F)(F)C(O)c1ccc(-c2ccccc2-c2nnn[nH]2)cc1 (centres undefined)
ED30 (Rattus norvegicus [15]): 2 mg/kg

IC50 [3]: 0.055 nM
SMILES: CCCCc1nc2cccc(C(=O)O)c2n1Cc1ccc(-c2ccccc2-c2nnn[nH]2)cc1

IC50 [16]: 10 nM
SMILES: CCCCc1nc(Cl)c2n1C(c1ccc(-c3ccccc3-c3nnn[nH]3)cc1)CC(C(=O)O)=C2 (centres undefined)

Source: ChEMBL document CHEMBL1667742, “Angiotensin II receptor type 1 (AT1) selective nonpeptidic antagonists--a perspective” (Bioorg Med Chem, 2010)
